Data taken from patent publication US4335250A, “Compound with immunopotentiating activity and production and uses thereof” (Banyu Pharmaceutical Co., Ltd., priority 1978, dated 1982).

Legend:
antibody-forming cells = settings: cited from earlier work
alkaline phosphatase = settings: cited from earlier work
[1] = system: delayed-type hypersensitivity; settings: cited from earlier work
IMC Carcinoma [2] = assay: Inhibitory effect on IMC Carcinoma, 5×10^6 cells transplanted; format: in vivo, CDF1 mouse (female, 14 weeks); settings: 5 days, 30 days; for Average weight of tumors: untreated 12380 mg; for Inhibition: tumor growth
Description: 5×10^6 IMC tumor cells were transplanted hypodermically to the inguinal section of each CDF1 mouse under test (female, 14 weeks old, 5 mice per group).

[3] = system: cellular immunity (cell-mediated immunity), DTH response to sheep red blood cells; assay: Delayed-type hypersensitivity (footpad swelling), CDF1 mice; format: in vivo, CDF1 mouse (male, 9 weeks)
Description: (§1) Thus, 10^8 sheep red blood cells (SRBC) suspended in 0.05 ml of physiological saline were subcutaneously injected at the time of immunization to the right hind footpad of each ICR mouse under test (female, 6 weeks aged) to establish delayed-type hypersensitivity. Simultaneously with the immunization, a varying dose of BF-127 substance was intraperitoneally injected into each test mouse. Four days later, 10^8 sheep red blood cells were subcutantaneously injected into the left hind footpad of each test mouse for elicitation of the D.T.H. response. 24 hours after eliciting injection, the thickness of the left hind footpad was measured with a vernier caliper to evaluate the degree of the resulting edema in the footpad. The degree of the swelling serves to estimate the cellular immunity involved. In the Table, the swelling degree is expressed in terms of the values calculated by the equation: [formula]
The same test procedure as described in Example 7 was repeated but using CDF1 (DBA/2xBALB/CF1) male mice (9 weeks old), in which varying doses of BF-127 substance were intraperitoneally injected or orally administered into each test mouse. The tests results are shown in Table 3 below where the swelling degree has the same significance as in Example 7.

Gardner Lymphoma = assay: Inhibitory effect on growth of transplanted Gardner Lymphoma; format: in vivo, C3H/He mouse (female, 10 weeks); settings: for Average weight of tumors / Inhibition: 5 days, 30 days after transplantation; for Average weight of tumors: untreated 1310 mg; for Inhibition: tumor growth
Description: 10^5 Gardner Lymphoma cells were transplanted subcutaneously to the inguinal of each C3H/He mouse under test (female, 10 weeks old, 5 mice per group).

[4] = system: cellular immunity (cell-mediated immunity), DTH response to sheep red blood cells; assay: Delayed-Type Hypersensitivity (D.T.H.) technique, ICR mice immunized with sheep red blood cells (footpad swelling); format: in vivo, ICR mouse (female, 6 weeks); settings: for Increase in thickness of footpad: 24 h after eliciting injection, control 8.3 ± 1.0; for Swelling degree: ICR mice, vs control
Description: In this Example, the effect of BF-127 substance on cellular immunity (cell-mediated immunity) was tested according to a known Delayed-Type Hypersensitivity (D.T.H.) technique (see P. H. Lagrange, G. B. Mackaness and T. E. Mille, "J. Exp. Med", 139, 1529-1539 (1974) using mice immunized with sheep red blood cells as antigen.
as §1
By way of reference, the test results conducted by the same procedure as above except that BF-127 substance was orally administered are indicated in Table 2 below.

IMC Carcinoma [5] = assay: Inhibitory effect on IMC Carcinoma, 1×10^6 cells inoculated; format: in vivo, CDF1 mouse (female, 14 weeks); settings: for Average weight of tumors: untreated 5635 mg; for Inhibition: tumor growth
Description: This Example illustrates the inhibitory effect of BF-127 substance on IMC Carcinoma. […] Pathological studies have shown that the above tumor is a sort of epithelial undifferentiated tumors.
5×10^6 IMC tumor cells were transplanted hypodermically to the inguinal section of each CDF1 mouse under test (female, 14 weeks old, 5 mice per group). 8 days after transplantation, a varying dose of BF-127 substance was intraperitoneally injected into each test mouse once a day for five successive days. 30 days after transplantation, the tumor formed were removed and weighed to evaluate the inhibitory effect of BF-127 substance on tumor growth in terms of average weight of the tumors formed in 5 mice.
Further tests were conducted following the procedure as above wherein 1×10^6 IMC tumor cells were inoculated and BF-127 substance was intraperitoneally injected (I.P.) or orally administered (P.O.).

[6] = system: cellular immunity (cell-mediated immunity), DTH response to sheep red blood cells; assay: Delayed-type hypersensitivity (footpad swelling), CDF1 mice; format: in vivo, CDF1 mouse (male, 9 weeks); settings: other strains of mice of different ages
immune response = settings: Japanese Patent Pre-publication No. 44632/79; U.S. Pat. No. 4,238,507; cited from earlier work
[7] = 100 μg/mouse (Control) i.p. once a day
[8] = 20 μg/mouse (Control) i.p. once a day

For `NC(C(=O)O)c1ccc(C=O)c(O)c1` (stereo not drawn) [Forphenicine], the “number of antibody-forming cells” value (antibody-forming cells) is listed as “increases the number of antibody-forming”, the “inhibition of alkaline phosphatase” value (alkaline phosphatase) is listed as “strong inhibitor” and the delayed-type hypersensitivity [1] is listed as “enhances delayed-type hypersensitivity”.

For `O=C(O)c1ccc(CO)c(O)c1` [BF-127, 3-hydroxy-4-(hydroxymethyl) benzoic acid], the “Average weight of tumors” value (IMC Carcinoma [2]; 1 μg/mouse i.p. once a day) was 5740 mg, the “Average weight of tumors” value (IMC Carcinoma [2]; 10 μg/mouse i.p. once a day) was 6190 mg and the “Average weight of tumors” value (IMC Carcinoma [2]; 100 μg/mouse i.p. once a day) was 7970 mg. The Inhibition (IMC Carcinoma [2]; 1 μg/mouse i.p. once a day) was 53.6%, the Inhibition (IMC Carcinoma [2]; 10 μg/mouse i.p. once a day) was 50.0% and the Inhibition (IMC Carcinoma [2]; 100 μg/mouse i.p. once a day) was 35.6%. For the same compound, the Swelling degree ([3]; 0.1 μg/mouse, I.P. injection) was 119%, the Swelling degree ([3]; 0.1 μg/mouse, oral administration) was 103% and the Swelling degree ([3]; 1 μg/mouse, I.P. injection) was 129%. It also gave a Swelling degree ([3]; 1 μg/mouse, oral administration) of 115%, a Swelling degree ([3]; 10 μg/mouse, I.P. injection) of 131% and a Swelling degree ([3]; 10 μg/mouse, oral administration) of 122%. The Swelling degree ([3]; 100 μg/mouse, I.P. injection) was 133%, the Swelling degree ([3]; 100 μg/mouse, oral administration) was 142% and the Swelling degree ([3]; 1 mg/mouse, I.P. injection) was 125%. For the same compound, the Swelling degree ([3]; 1 mg/mouse, oral administration) was 138%, the “Average weight of tumors” value (Gardner Lymphoma; 0.1 μg/mouse i.p. once a day) was 950 mg and the “Average weight of tumors” value (Gardner Lymphoma; 1 μg/mouse i.p. once a day) was 930 mg. The “Average weight of tumors” value (Gardner Lymphoma; 10 μg/mouse i.p. once a day) was 570 mg, the “inhibition of tumor growth compared to Bleomycin” value (Gardner Lymphoma; BF-127 at 10 μg/mouse) was “superior or comparable to Bleomycin” and the Inhibition (Gardner Lymphoma; 0.1 μg/mouse i.p. once a day) was 27.5%. The Inhibition (Gardner Lymphoma; 1 μg/mouse i.p. once a day) was 29.0%, the Inhibition (Gardner Lymphoma; 10 μg/mouse i.p. once a day) was 56.5% and the “Increase in thickness of footpad” value ([4]; 0.1 μg/mouse i.p.) was 14.3 ± 1.1 × 0.1 mm. The Swelling degree ([4]; 0.1 μg/mouse i.p.) was 172%, the “Increase in thickness of footpad” value ([4]; 1 μg/mouse i.p.) was 19.4 ± 1.8 × 0.1 mm and the Swelling degree ([4]; 1 μg/mouse i.p.) was 234%. The “Increase in thickness of footpad” value ([4]; 10 μg/mouse i.p.) was 15.5 ± 1.3 × 0.1 mm, the Swelling degree ([4]; 10 μg/mouse i.p.) was 187% and the Swelling degree ([4]; 10 μg/mouse oral) was 146%. For the same compound, the “Increase in thickness of footpad” value ([4]; 100 μg/mouse i.p.) was 15.7 ± 0.3 × 0.1 mm, the Swelling degree ([4]; 100 μg/mouse i.p.) was 189% and the Swelling degree ([4]; 100 μg/mouse oral) was 148%. For the same compound, the “Increase in thickness of footpad” value ([4]; 1 mg/mouse i.p.) was 13.1 ± 0.4 × 0.1 mm, the Swelling degree ([4]; 1 mg/mouse i.p.) was 158% and the Swelling degree ([4]; 1 mg/mouse oral) was 133%. For the same compound, the “potentiating effect on establishment of cellular immunity” value ([4]; i.p., 1 mg to 0.1 μg/mouse) was “intensive potentiating effect”, the “potentiating effect on DTH response” value ([4]; intravenous injection) was “potentiating effect has also been observed” and the “potentiating effect on DTH response” value ([4]; oral administration) was “potentiating effect has also been observed”. For the same compound, the “potentiation of the DTH response” value ([4]; oral, doses of 1 mg to 10 μg/mouse) was 30-50%, the “potentiating effect on DTH response” value ([4]; subcutaneous injection) was “potentiating effect has also been observed” and the “Average weight of tumors” value (IMC Carcinoma [5]; 1 μg/mouse (I.P.)) was 2206 mg. For the same compound, the “Average weight of tumors” value (IMC Carcinoma [5]; 1 μg/mouse (P.O.)) was 2538 mg, the “Average weight of tumors” value (IMC Carcinoma [5]; 10 μg/mouse (I.P.)) was 1312 mg and the “Average weight of tumors” value (IMC Carcinoma [5]; 10 μg/mouse (P.O.)) was 2638 mg. It also gave an Inhibition (IMC Carcinoma [5]; 1 μg/mouse (I.P.)) of 60.8%, an Inhibition (IMC Carcinoma [5]; 1 μg/mouse (P.O.)) of 55.0% and an Inhibition (IMC Carcinoma [5]; 10 μg/mouse (I.P.)) of 76.8%. The Inhibition (IMC Carcinoma [5]; 10 μg/mouse (P.O.)) was 53.0% and the immunopotentiating effect [6] was “also observed”.

In the case of Bleomycin [reference compound], the “Average weight of tumors” value (IMC Carcinoma [2]; 100 μg/mouse i.p. once a day) is reported as 5770 mg, the Inhibition (IMC Carcinoma [2]; 100 μg/mouse i.p. once a day) is reported as 53.4% and the “Average weight of tumors” value (Gardner Lymphoma; [7]) is reported as 760 mg. For the same compound, the Inhibition (Gardner Lymphoma; [7]) was 42.0%.

For `NC(C(=O)O)c1ccc(CO)c(O)c1` (stereo not drawn) [forphenicinol], the immunopotentiating activity (immune response) is listed as “found to have an immunopotentiating activity”.

With `CO[C@@]12[C@H](COC(N)=O)C3=C(C(=O)C(C)=C(N)C3=O)N1C[C@@H]1N[C@@H]12` [MMC, Mytomycin, reference compound] the “Average weight of tumors” value (IMC Carcinoma [2]; [8]) was 5510 mg and the Inhibition (IMC Carcinoma [2]; [8]) was 55.5%.
